Measured values reported in ChEMBL document CHEMBL1201862, “PubChem BioAssay data set” (2004).
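Step 1: Grow cells in 96-well plates. Step 2: Expose to compound for 48 hours at 5 concentrations. Step 3: Interpolate endpoints linearly; if unreached, use highest concentration. GI50 = concentration required for 50% inhibition of growth.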 Activity calls are given as the source filed them. Cut-off read from the data, not from the text of the source: active = GI50 up to about 1.1 µM and inactive = higher.

Legend:
Test in all cases: DTP human tumour cell line panel, 48 h
MDA-MB-231 = tested on: MDA-MB-231
HCT-15 = tested on: HCT-15
SK-MEL-28 = tested on: SK-MEL-28
NCI-H226 = tested on: NCI-H226
PC-3 = tested on: PC-3
UO-31 = tested on: UO-31
SF-268 = tested on: SF-268
K562 = tested on: K562
HCT-116 = tested on: HCT-116
EKVX = tested on: EKVX
SNB-75 = tested on: SNB-75
OVCAR-8 = tested on: OVCAR-8
NCI-H23 = tested on: NCI-H23
SK-MEL-2 = tested on: SK-MEL-2
HL-60 = tested on: HL-60
NCI-H460 = tested on: NCI-H460
OVCAR-3 = tested on: OVCAR-3
Malme-3M = tested on: Malme-3M
RXF 393 = tested on: RXF 393
A549 = tested on: A549

Row | Structure (SMILES) | GI50 (MDA-MB-231) | GI50 (HCT-15) | GI50 (SK-MEL-28) | GI50 (NCI-H226) | GI50 (PC-3) | GI50 (UO-31) | GI50 (SF-268) | GI50 (K562) | GI50 (HCT-116) | GI50 (EKVX) | GI50 (SNB-75) | GI50 (OVCAR-8) | GI50 (NCI-H23) | GI50 (SK-MEL-2) | GI50 (HL-60) | GI50 (NCI-H460) | GI50 (OVCAR-3) | GI50 (Malme-3M) | GI50 (RXF 393) | GI50 (A549)
1 | COC(=O)c1cc2ccc(O)c(O)c2cn1 | 10.9 µM (inactive) | 20.3 µM | 20.4 µM (inactive) | 18.2 µM (inactive) | 24.9 µM (inactive) | 18.3 µM (inactive) | 17.1 µM (inactive) | 2.42 µM (inactive) | 15.7 µM (inactive) | 21.4 µM (inactive) | 21.5 µM (inactive) | 13.9 µM (inactive) | 15.7 µM (inactive) | 18.1 µM (inactive) | 3.36 µM (inactive) | 19 µM (inactive) | 17.1 µM (inactive) | 14.4 µM (inactive) | 18 µM (inactive) | 23.6 µM (inactive)
2 | CCCc1cn2c(/C=N/NC(=N)N)c(-c3cccc([N+](=O)[O-])c3)nc2s1 | 1.47 µM (inactive) | 1.84 µM | 1.43 µM (inactive) | 1.66 µM (inactive) | 2.59 µM (inactive) | 1.9 µM (inactive) | 2.25 µM (inactive) | 1.58 µM (inactive) | 2.27 µM (inactive) | – | 1.56 µM (inactive) | 1.88 µM (inactive) | 1.78 µM (inactive) | 2.1 µM (inactive) | 2.09 µM (inactive) | 2.22 µM (inactive) | 1.8 µM (inactive) | 1.3 µM (inactive) | 1.89 µM (inactive) | 1.73 µM (inactive)
3 | CN(C)c1ccc(/N=N/c2ccc3[nH]cnc3c2)cc1 | 15.1 µM (inactive) | 22.1 µM | 11.5 µM (inactive) | 34 µM (inactive) | 33.1 µM (inactive) | 28.4 µM (inactive) | 20.6 µM (inactive) | 19.5 µM (inactive) | 18 µM (inactive) | 33.5 µM (inactive) | 31.6 µM (inactive) | 38.4 µM (inactive) | 45.5 µM (inactive) | 58.7 µM (inactive) | 14.7 µM (inactive) | 18.8 µM (inactive) | – | 25.2 µM (inactive) | 27.1 µM (inactive) | 29.7 µM (inactive)
4 | COC(=O)C12OCC34C(CC5C(C)=CC(=O)C(O)C5(C)C3C(O)C1O)OC(=O)C(OC(=O)CC(C)C)C24 (stereo not drawn) | 0.00369 µM (active) | 0.00288 µM | 0.00134 µM (active) | 0.00109 µM (active) | 0.000871 µM (active) | 0.00738 µM (active) | 0.00217 µM (active) | – | – | 0.00313 µM (active) | 0.00216 µM (active) | 0.00206 µM (active) | 0.000778 µM (active) | 0.00281 µM (active) | 0.000208 µM (active) | 0.00046 µM (active) | 0.000906 µM (active) | 0.00126 µM (active) | 0.00168 µM (active) | 0.0013 µM (active)
5 | CCN1CSC(=S)N(CC)C1 | 19.5 µM (inactive) | 73.3 µM | > 100 µM (inactive) | > 100 µM (inactive) | > 100 µM (inactive) | > 100 µM (inactive) | > 100 µM (inactive) | > 100 µM (inactive) | 41.3 µM (inactive) | > 100 µM (inactive) | 44.2 µM (inactive) | 98.4 µM (inactive) | 48.3 µM (inactive) | > 100 µM (inactive) | 15 µM (inactive) | 56.2 µM (inactive) | 37.8 µM (inactive) | 52.7 µM (inactive) | > 100 µM (inactive) | > 100 µM (inactive)
6 | NS(=O)(=O)c1ccc(NCc2cnc3ccccc3n2)cc1 | > 100 µM (inactive) | > 100 µM | > 100 µM (inactive) | > 100 µM (inactive) | > 100 µM (inactive) | > 100 µM (inactive) | > 100 µM (inactive) | > 100 µM (inactive) | > 100 µM (inactive) | > 100 µM (inactive) | > 100 µM (inactive) | > 100 µM (inactive) | > 100 µM (inactive) | > 100 µM (inactive) | > 100 µM (inactive) | > 100 µM (inactive) | > 100 µM (inactive) | > 100 µM (inactive) | > 100 µM (inactive) | > 100 µM (inactive)
7 | CCOC(=O)c1c(NC(=O)c2cccs2)sc2c1CCCC2 | 24.6 µM (inactive) | > 100 µM | > 100 µM (inactive) | > 38.6 µM (inactive) | 54.8 µM (inactive) | > 63.1 µM (inactive) | 28.1 µM (inactive) | > 100 µM (inactive) | 46.9 µM (inactive) | 54.8 µM (inactive) | 5.68 µM (inactive) | 61.9 µM (inactive) | 48.3 µM (inactive) | 42 µM (inactive) | > 100 µM (inactive) | > 88.9 µM (inactive) | 46.3 µM (inactive) | 29 µM (inactive) | 12.7 µM (inactive) | 55.5 µM (inactive)
8 | CC(SCc1ccccc1)C(=O)O (stereo not drawn) | > 100 µM (inactive) | > 100 µM | > 100 µM (inactive) | > 100 µM (inactive) | > 100 µM (inactive) | > 100 µM (inactive) | > 100 µM (inactive) | > 100 µM (inactive) | > 100 µM (inactive) | > 100 µM (inactive) | > 100 µM (inactive) | > 100 µM (inactive) | > 100 µM (inactive) | > 100 µM (inactive) | > 100 µM (inactive) | > 100 µM (inactive) | > 100 µM (inactive) | > 100 µM (inactive) | > 100 µM (inactive) | > 100 µM (inactive)
9 | CC(=O)NC1CCC(NC(=O)OC(C)(C)C)C(NC(=O)OC(C)(C)C)C1 (stereo not drawn) | > 100 µM (inactive) | > 100 µM | > 100 µM (inactive) | > 100 µM (inactive) | > 100 µM (inactive) | > 100 µM (inactive) | > 100 µM (inactive) | > 100 µM (inactive) | > 100 µM (inactive) | – | > 100 µM (inactive) | > 100 µM (inactive) | > 100 µM (inactive) | > 100 µM (inactive) | > 100 µM (inactive) | > 100 µM (inactive) | > 100 µM (inactive) | > 100 µM (inactive) | > 100 µM (inactive) | > 100 µM (inactive)
10 | CC1(C)CN=C(Nc2ccc(F)c(F)c2)S1 | > 100 µM (inactive) | > 100 µM | > 100 µM (inactive) | > 100 µM (inactive) | > 100 µM (inactive) | > 100 µM (inactive) | > 100 µM (inactive) | > 100 µM (inactive) | > 100 µM (inactive) | > 100 µM (inactive) | > 100 µM (inactive) | > 100 µM (inactive) | > 100 µM (inactive) | > 100 µM (inactive) | > 100 µM (inactive) | – | > 100 µM (inactive) | > 100 µM (inactive) | > 100 µM (inactive) | > 100 µM (inactive)
11 | C[C@]12CC[C@@H]3c4ccc(O)cc4CC[C@H]3[C@@H]1C/C(=C\c1ccc(C#N)cc1)C2=O | 23.3 µM (inactive) | 71.8 µM | 36.2 µM (inactive) | 37.9 µM (inactive) | 18.6 µM (inactive) | 46.9 µM (inactive) | 61 µM (inactive) | > 100 µM (inactive) | 32.9 µM (inactive) | 34.8 µM (inactive) | 94 µM (inactive) | 55.5 µM (inactive) | 38.2 µM (inactive) | 28.8 µM (inactive) | – | 36.1 µM (inactive) | 21.9 µM (inactive) | 28.3 µM (inactive) | 14.6 µM (inactive) | 30.8 µM (inactive)
12 | CNC(=O)N1N[C@H](c2ccccc2)[C@@H]1c1ccccc1.OB(O)O | 28.8 µM (inactive) | 24.3 µM | 18 µM (inactive) | 16.7 µM (inactive) | 28.1 µM (inactive) | 22.5 µM (inactive) | – | 22.6 µM (inactive) | 17.9 µM (inactive) | 22.2 µM (inactive) | 15.6 µM (inactive) | 14.5 µM (inactive) | 22.6 µM (inactive) | 15.3 µM (inactive) | 23.7 µM (inactive) | 21.8 µM (inactive) | 17 µM (inactive) | 19.7 µM (inactive) | 14.2 µM (inactive) | 28.4 µM (inactive)
13 | CC(C(=O)c1ccccc1)C(c1ccccc1)N1CCOCC1 (stereo not drawn) | > 100 µM (inactive) | > 100 µM | > 100 µM (inactive) | > 100 µM (inactive) | > 100 µM (inactive) | – | > 100 µM (inactive) | > 100 µM (inactive) | > 100 µM (inactive) | > 100 µM (inactive) | > 100 µM (inactive) | > 100 µM (inactive) | > 100 µM (inactive) | > 100 µM (inactive) | 49.1 µM (inactive) | > 100 µM (inactive) | > 100 µM (inactive) | > 100 µM (inactive) | > 100 µM (inactive) | > 100 µM (inactive)
14 | O=C1C(=O)N(c2cccc(C(F)(F)F)c2)C(=S)N1c1ccccc1 | 24.4 µM (inactive) | 19.1 µM | 28 µM (inactive) | 24.5 µM (inactive) | 30.8 µM (inactive) | 25.2 µM (inactive) | 43.9 µM (inactive) | 34.5 µM (inactive) | 31.7 µM (inactive) | 30.9 µM (inactive) | 34.5 µM (inactive) | 33.7 µM (inactive) | 25.5 µM (inactive) | 19.1 µM (inactive) | 32.7 µM (inactive) | 2.32 µM (inactive) | – | 31.8 µM (inactive) | 27.7 µM (inactive) | 33.3 µM (inactive)
15 | CN1CCN(Cc2cc3c(nn2)-c2ccccc2C3=O)CC1 | > 10 µM (inactive) | 26.2 µM | – | > 100 µM (inactive) | 37.8 µM (inactive) | 32.7 µM (inactive) | > 100 µM (inactive) | 47.1 µM (inactive) | 30.4 µM (inactive) | 46.3 µM (inactive) | > 100 µM (inactive) | 95.7 µM (inactive) | 35 µM (inactive) | > 100 µM (inactive) | 21 µM (inactive) | 34.4 µM (inactive) | – | 19.1 µM (inactive) | > 100 µM (inactive) | > 100 µM (inactive)
